Key:
[1] = biological target: Hepatocyte growth factor receptor (Homo sapiens) (UniProt P08581); test: Inhibition of human c-MET assessed as residual activity at 1 uM using KKKSPGEYVNIEFG as substrate by [gamma-33P]-ATP assay relative to control
[2] = biological target: T1, Serine/threonine-protein kinase Chk1 (Homo sapiens) (UniProt O14757); test: Inhibition of CHK1 phosphorylation at S317 residue in human FOLFOX-resistant HT-29 cells after 24 hrs by Western blot analysis
T1 sequence (whole entry): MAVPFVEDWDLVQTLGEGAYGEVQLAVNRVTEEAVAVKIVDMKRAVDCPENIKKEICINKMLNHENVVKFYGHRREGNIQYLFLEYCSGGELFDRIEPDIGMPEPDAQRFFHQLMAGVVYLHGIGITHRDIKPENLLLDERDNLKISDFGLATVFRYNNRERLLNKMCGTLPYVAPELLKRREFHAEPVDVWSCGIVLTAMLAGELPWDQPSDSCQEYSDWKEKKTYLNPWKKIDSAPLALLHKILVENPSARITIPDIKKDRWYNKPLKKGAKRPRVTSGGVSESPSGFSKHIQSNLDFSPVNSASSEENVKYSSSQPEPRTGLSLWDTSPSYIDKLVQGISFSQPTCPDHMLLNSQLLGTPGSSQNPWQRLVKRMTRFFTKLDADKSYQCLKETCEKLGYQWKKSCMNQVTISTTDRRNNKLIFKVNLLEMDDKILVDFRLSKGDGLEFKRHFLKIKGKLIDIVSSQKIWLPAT

[3] = biological target: Tyrosine-protein kinase receptor UFO (Homo sapiens) (UniProt P30530); test: Inhibition of human AXL assessed as residual activity at 1 uM using EAIYAAPFAKKK as substrate by [gamma-33P]-ATP assay relative to control
Chain of Tyrosine-protein kinase receptor UFO (Homo sapiens) (P30530 whole entry): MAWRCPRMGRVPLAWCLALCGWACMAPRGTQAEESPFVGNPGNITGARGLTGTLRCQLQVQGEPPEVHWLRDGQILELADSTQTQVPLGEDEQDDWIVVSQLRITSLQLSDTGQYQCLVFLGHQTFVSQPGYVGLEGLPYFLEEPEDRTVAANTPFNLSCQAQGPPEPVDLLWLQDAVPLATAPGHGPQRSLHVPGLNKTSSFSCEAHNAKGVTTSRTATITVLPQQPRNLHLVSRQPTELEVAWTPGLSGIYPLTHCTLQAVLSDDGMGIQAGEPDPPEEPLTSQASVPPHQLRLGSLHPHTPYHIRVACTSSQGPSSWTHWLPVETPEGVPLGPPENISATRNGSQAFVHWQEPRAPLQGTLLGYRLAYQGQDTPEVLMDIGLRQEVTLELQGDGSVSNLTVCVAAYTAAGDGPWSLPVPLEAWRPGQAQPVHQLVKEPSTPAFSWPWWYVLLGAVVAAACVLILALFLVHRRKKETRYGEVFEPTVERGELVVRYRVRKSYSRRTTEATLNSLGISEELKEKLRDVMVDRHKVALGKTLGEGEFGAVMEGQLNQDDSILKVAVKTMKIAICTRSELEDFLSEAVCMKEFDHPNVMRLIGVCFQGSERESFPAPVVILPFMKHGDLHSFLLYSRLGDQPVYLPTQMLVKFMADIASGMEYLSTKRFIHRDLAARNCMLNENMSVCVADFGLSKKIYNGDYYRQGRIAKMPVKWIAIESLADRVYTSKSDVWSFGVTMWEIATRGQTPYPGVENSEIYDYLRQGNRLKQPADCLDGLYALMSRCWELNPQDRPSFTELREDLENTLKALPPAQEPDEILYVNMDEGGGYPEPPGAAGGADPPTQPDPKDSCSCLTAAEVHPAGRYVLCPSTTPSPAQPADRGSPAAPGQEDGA

[4] = biological target: Protein kinase C epsilon type (Homo sapiens) (UniProt Q02156); test: Inhibition of human PKCepsilon assessed as residual activity at 1 uM using ERMRPRKRQGSVRRRV as substrate by [gamma-33P]-ATP assay relative to control
[5] = biological target: Calcium/calmodulin-dependent protein kinase kinase 1 (Homo sapiens) (UniProt Q8N5S9); test: Inhibition of human CAMKK1 assessed as residual activity at 1 uM using MBP as substrate by [gamma-33P]-ATP assay relative to control
Chain of Calcium/calmodulin-dependent protein kinase kinase 1 (Homo sapiens) (Q8N5S9 whole entry, looked up): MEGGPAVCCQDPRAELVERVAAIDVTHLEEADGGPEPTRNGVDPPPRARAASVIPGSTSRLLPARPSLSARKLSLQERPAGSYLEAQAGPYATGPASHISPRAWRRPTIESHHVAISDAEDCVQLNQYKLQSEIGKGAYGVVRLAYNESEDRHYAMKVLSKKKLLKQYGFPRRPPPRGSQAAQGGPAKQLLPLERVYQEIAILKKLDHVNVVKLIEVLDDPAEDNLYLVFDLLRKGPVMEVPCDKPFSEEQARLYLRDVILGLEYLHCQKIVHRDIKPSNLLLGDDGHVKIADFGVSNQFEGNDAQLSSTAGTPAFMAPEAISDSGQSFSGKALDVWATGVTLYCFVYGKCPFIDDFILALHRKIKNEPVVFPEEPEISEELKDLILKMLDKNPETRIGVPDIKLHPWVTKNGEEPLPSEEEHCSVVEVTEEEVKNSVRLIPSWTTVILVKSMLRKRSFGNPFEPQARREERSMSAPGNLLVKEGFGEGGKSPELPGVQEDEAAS

[6] = biological target: T1, Serine/threonine-protein kinase Chk1 (Homo sapiens); test: Inhibition of CHK1 phosphorylation at S345 residue in human FOLFOX-resistant HCT116 cells after 24 hrs by Western blot analysis
[7] = biological target: Serine/threonine-protein kinase WNK1 (Homo sapiens) (UniProt Q9H4A3); test: Inhibition of human WNK1 assessed as residual activity at 1 uM using MBP as substrate by [gamma-33P]-ATP assay relative to control
[8] = biological target: Dual specificity tyrosine-phosphorylation-regulated kinase 1A (Homo sapiens) (UniProt Q13627); test: Inhibition of human DYRK1A assessed as residual activity at 1 uM using RRRFRPASPLRGPPK as substrate by [gamma-33P]-ATP assay relative to control
[9] = biological target: MAP kinase-interacting serine/threonine-protein kinase 2 (Homo sapiens) (UniProt Q9HBH9); test: Inhibition of human MNK2 assessed as residual activity at 1 uM using MBP as substrate by [gamma-33P]-ATP assay relative to control
[10] = biological target: Activin receptor type-1 (Homo sapiens) (UniProt Q04771); test: Inhibition of human ALK2 assessed as residual activity at 1 uM using casein as substrate by [gamma-33P]-ATP assay relative to control
[11] = biological target: Tyrosine-protein kinase JAK1 (Homo sapiens) (UniProt P23458); test: Inhibition of human JAK1 assessed as residual activity at 1 uM using poly[Glu:Tyr] (4:1) as substrate by [gamma-33P]-ATP assay relative to control
[12] = biological target: Serine/threonine-protein kinase TAO1 (Homo sapiens) (UniProt Q7L7X3); test: Inhibition of human TAOK1 assessed as residual activity at 1 uM using MBP as substrate by [gamma-33P]-ATP assay relative to control
[13] = biological target: Aurora kinase C (Homo sapiens) (UniProt Q9UQB9); test: Inhibition of human Aurora C assessed as residual activity at 1 uM using [H-LRRASLG] as substrate by [gamma-33P]-ATP assay relative to control
[14] = biological target: Casein kinase I isoform alpha (Homo sapiens) (UniProt P48729); test: Inhibition of human CK1a1 assessed as residual activity at 1 uM using KRRRAL[pS]VASLPGL as substrate by [gamma-33P]-ATP assay relative to control
Chain of Casein kinase I isoform alpha (Homo sapiens) (P48729 2-337 limits assumed): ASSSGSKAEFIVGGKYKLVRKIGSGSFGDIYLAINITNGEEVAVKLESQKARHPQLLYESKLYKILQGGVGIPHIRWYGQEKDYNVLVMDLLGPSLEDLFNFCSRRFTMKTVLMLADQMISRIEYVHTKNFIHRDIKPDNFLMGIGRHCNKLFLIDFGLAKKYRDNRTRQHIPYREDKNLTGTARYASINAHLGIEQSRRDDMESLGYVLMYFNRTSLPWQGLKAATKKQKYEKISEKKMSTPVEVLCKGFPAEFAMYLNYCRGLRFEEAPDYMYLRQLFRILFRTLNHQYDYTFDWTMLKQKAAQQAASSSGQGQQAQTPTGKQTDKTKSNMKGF

[15] = biological target: Casein kinase II subunit alpha (Homo sapiens, UniProt P68400); test: Inhibition of human CK2A assessed as residual activity at 1 uM using RRRDDDSDDD as substrate by [gamma-33P]-ATP assay relative to control
Chain of Casein kinase II subunit alpha (P68400 whole entry, looked up): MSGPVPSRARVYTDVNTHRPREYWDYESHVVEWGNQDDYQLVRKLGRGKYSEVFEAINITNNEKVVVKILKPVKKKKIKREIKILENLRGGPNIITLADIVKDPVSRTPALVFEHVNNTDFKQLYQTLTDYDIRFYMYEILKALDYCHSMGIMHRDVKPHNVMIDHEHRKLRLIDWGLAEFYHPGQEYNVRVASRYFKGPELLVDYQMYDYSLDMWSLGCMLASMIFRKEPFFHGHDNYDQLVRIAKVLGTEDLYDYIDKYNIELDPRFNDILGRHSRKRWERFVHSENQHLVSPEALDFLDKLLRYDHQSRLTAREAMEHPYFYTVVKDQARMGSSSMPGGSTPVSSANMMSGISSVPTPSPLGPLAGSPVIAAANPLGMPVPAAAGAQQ

[16] = biological target: Serine/threonine-protein kinase tousled-like 2 (Homo sapiens) (UniProt Q86UE8); test: Inhibition of human TLK2 assessed as residual activity at 1 uM using casein as substrate by [gamma-33P]-ATP assay relative to control
[17] = biological target: Vascular endothelial growth factor receptor 1 (Homo sapiens) (UniProt P17948); test: Inhibition of human FLT1 assessed as residual activity at 1 uM using poly[Glu:Tyr] (4:1) as substrate by [gamma-33P]-ATP assay relative to control
[18] = biological target: T1, Serine/threonine-protein kinase Chk1 (Homo sapiens); test: Inhibition of CHK1 phosphorylation at S296 residue in human FOLFOX-resistant HT-29 cells after 24 hrs by Western blot analysis
[19] = biological target: Protein kinase C alpha type (Homo sapiens) (UniProt P17252); test: Inhibition of human PKCalpha assessed as residual activity at 1 uM using ERMRPRKRQGSVRRRV as substrate by [gamma-33P]-ATP assay relative to control
[20] = biological target: Platelet-derived growth factor receptor beta (Homo sapiens) (UniProt P09619); test: Inhibition of human PDGFRbeta assessed as residual activity at 1 uM using poly[Glu:Tyr] (4:1) as substrate by [gamma-33P]-ATP assay relative to control
[21] = biological target: Mitogen-activated protein kinase kinase kinase 19 (Homo sapiens) (UniProt Q56UN5); test: Inhibition of human YSK4 assessed as residual activity at 1 uM using MBP as substrate by [gamma-33P]-ATP assay relative to control
Chain of Mitogen-activated protein kinase kinase kinase 19 (Homo sapiens) (Q56UN5 whole entry): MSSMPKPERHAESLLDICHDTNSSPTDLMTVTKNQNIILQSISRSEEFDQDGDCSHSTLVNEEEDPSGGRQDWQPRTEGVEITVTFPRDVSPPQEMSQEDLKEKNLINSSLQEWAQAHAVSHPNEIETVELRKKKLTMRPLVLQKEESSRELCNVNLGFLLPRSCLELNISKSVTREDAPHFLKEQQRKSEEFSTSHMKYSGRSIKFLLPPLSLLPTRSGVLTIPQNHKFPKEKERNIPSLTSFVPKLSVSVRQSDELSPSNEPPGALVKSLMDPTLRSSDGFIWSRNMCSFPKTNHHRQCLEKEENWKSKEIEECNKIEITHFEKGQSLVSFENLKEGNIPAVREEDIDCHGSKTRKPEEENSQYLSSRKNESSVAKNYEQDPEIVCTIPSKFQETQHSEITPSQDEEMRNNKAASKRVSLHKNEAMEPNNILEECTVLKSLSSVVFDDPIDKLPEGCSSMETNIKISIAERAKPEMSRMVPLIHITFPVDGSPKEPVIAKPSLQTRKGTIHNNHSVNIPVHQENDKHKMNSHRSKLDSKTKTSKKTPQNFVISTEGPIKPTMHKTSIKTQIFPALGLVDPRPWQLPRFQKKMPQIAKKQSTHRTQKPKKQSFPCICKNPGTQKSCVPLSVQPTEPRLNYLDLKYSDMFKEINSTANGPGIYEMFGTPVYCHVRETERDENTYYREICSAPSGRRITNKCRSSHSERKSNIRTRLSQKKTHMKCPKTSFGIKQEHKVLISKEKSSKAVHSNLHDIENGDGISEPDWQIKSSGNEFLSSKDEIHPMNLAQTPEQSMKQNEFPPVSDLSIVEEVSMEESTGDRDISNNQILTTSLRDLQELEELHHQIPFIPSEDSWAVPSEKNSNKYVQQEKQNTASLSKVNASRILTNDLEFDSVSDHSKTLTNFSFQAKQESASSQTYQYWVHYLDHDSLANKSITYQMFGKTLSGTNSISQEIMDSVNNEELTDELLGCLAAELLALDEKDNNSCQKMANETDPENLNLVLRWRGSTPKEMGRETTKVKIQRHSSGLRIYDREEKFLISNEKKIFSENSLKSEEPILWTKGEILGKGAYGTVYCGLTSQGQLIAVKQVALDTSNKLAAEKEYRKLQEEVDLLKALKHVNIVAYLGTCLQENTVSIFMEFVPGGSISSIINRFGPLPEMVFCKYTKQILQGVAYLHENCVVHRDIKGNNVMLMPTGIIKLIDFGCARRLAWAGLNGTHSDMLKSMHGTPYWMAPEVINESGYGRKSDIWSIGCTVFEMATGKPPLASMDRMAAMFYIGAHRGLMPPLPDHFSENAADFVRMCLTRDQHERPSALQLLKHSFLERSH

[22] = biological target: cAMP-dependent protein kinase catalytic subunit PRKX (Homo sapiens) (UniProt P51817); test: Inhibition of human PRKX assessed as residual activity at 1 uM using LRRASLG as substrate by [gamma-33P]-ATP assay relative to control
[23] = biological target: MAP/microtubule affinity-regulating kinase 4 (Homo sapiens) (UniProt Q96L34); test: Inhibition of human MARK4 assessed as residual activity at 1 uM using KKKVSRSGLYRSPSMPENLNRPR as substrate by [gamma-33P]-ATP assay relative to control
[24] = biological target: Serine/threonine-protein kinase 17A (Homo sapiens) (UniProt Q9UEE5); test: Inhibition of human DRAK1 assessed as residual activity at 1 uM using KKLNRTLSFAEPG as substrate by [gamma-33P]-ATP assay relative to control

Chain of Hepatocyte growth factor receptor (Homo sapiens) (P08581 whole entry): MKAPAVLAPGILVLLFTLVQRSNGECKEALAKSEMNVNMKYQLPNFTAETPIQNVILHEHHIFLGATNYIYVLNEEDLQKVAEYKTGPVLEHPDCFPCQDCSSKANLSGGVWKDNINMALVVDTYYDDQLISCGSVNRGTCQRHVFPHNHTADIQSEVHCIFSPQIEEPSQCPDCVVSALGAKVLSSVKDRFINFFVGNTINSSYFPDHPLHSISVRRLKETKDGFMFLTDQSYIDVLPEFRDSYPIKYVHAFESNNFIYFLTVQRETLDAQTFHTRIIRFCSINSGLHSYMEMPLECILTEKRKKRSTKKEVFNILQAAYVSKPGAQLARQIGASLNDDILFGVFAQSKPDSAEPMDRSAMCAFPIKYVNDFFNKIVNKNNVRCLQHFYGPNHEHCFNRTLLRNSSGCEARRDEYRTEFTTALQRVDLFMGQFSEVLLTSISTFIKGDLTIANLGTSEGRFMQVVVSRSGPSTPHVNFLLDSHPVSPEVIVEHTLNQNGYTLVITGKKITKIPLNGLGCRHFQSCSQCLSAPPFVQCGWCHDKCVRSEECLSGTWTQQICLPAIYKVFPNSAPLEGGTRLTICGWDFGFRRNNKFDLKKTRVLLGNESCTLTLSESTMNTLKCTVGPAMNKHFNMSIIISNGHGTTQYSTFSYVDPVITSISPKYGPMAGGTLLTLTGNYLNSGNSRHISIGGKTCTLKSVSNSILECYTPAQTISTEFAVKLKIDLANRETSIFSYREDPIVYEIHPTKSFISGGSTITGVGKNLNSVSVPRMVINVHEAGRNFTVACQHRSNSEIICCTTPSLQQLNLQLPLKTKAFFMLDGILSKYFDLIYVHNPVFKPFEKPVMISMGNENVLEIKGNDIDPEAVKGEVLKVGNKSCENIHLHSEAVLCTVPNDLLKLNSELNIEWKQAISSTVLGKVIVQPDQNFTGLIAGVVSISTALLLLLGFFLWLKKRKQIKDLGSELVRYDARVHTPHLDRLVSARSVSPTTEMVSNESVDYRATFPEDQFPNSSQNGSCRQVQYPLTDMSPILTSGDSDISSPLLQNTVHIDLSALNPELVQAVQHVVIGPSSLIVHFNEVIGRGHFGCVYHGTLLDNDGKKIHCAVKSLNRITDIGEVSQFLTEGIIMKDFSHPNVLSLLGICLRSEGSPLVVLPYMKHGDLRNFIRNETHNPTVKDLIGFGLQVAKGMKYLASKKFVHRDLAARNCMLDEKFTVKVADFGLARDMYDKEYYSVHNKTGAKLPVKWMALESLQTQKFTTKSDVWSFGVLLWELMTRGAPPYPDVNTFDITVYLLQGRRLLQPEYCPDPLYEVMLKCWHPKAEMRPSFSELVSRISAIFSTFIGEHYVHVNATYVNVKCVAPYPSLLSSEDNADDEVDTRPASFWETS

Row | Compound | Activity [1] [%] | inhibition [2] | Activity [3] [%] | Activity [4] [%] | Activity [5] [%] | inhibition [6] | Activity [7] [%] | Activity [8] [%] | Activity [9] [%] | Activity [10] [%] | Activity [11] [%] | Activity [12] [%] | Activity [13] [%] | Activity [14] [%] | Activity [15] [%] | Activity [16] [%] | Activity [17] [%] | inhibition [18] | Activity [19] [%] | Activity [20] [%] | other results
1 | C(=C\c1ccccc1)/C[N+]12CN3CN(CN(C3)C1)C2 | 78.7 to 88 | Dose-dependent effect | 94.8 to 94.9 | 121 to 126 | 91.5 to 93.2 | Dose-dependent effect | 93.6 to 94.3 | 95.8 to 96.4 | 93 to 95.7 | 96.6 to 96.7 | 92.4 to 92.6 | 94.8 to 96 | 95.8 to 96.8 | 94.9 to 96.5 | 124 to 125 | 87.9 to 91.1 | 96.1 to 97.1 | Dose-dependent effect | 94 to 95.2 | 91.9 to 93.1 | Activity [21]: 93.8 to 96.3%; Activity [22]: 93.3 to 94.9%; Activity [23]: 93.8 to 96.3%; Activity [24]: 92.8 to 95.6%
2 | ClC/C=C/C[N+]12CN3CN(CN(C3)C1)C2 | 84.9 to 90.2 | Dose-dependent effect | 95.7 to 96.5 | 121 to 133 | 95.5 to 95.7 | Dose-dependent effect | 92.5 to 94.9 | 95.7 to 95.8 | 91.2 to 92.6 | 94.7 to 94.8 | 92.7 to 94.5 | 95.7 to 96.8 | 87.2 to 91.4 | 95.6 to 96.5 | 124 to 125 | 91.2 to 91.8 | 94.7 to 95.5 | Dose-dependent effect | 93.9 to 94.3 | 90.5 to 92 | Activity [21]: 94 to 94.8%; Activity [22]: 95.2 to 96%; Activity [23]: 90.2 to 95.2%; Activity [24]: 90.9 to 92.8%
